Tests used:
[1] = system: migration inhibitory factor (MIF); experiment: gene expression profiling of Ramos cells (Affymetrix U133A); type: cell-based, human
Protocol: In vitro testing with Ramos cells to determine the changes in gene expression (at the level of mRNA) induced by Bz-423 was performed by culturing cells at a density of 500,000 cells per ml. Solvent control (DMSO, final concentration 0.1% V/V]), Bz-423, or Bz-OMe (10 μM) was added to cells. After 4 h, cells were harvested and RNA prepared using Trizol Reagent (#15596-018, Life Technologies, Rockville, Md.) and the RNeasy Maxi Kit (# 75162, Qiagen, Valencia, Calif.) according to manufacturers protocols. Single stranded cDNA was synthesized by reverse transcription using poly (A) RNA present in the starting total RNA sample. Single stranded cDNA was converted into double stranded cDNA and then in vitro transcription carried out in the presence of biotinylated UTP and CTP to produce biotin-labeled cRNA. cRNA was fragmented in the presence of Mg2+, and hybridized to the human genome U133A Genechip array (Affymetrix). Hybridization results were quantified using a GeneArray scanner and analysis carried out according to the instructions provided by Affymetrix. […]
The data were analyzed to detect genes changes Bz treatment according to the criteria that the log-transformed mean signal changed at least four-fold in treated compared to vehicle control samples and that the coefficient of variance for control values (n=4) was less than 10%. […]

[2] = target: T1, bovine serum albumin (BSA) (Bos taurus, UniProt P02769); experiment: binding to bovine serum albumin in tissue culture media; type: in vitro ADME; conditions: tissue culture media containing 10% (v/v) FBS
T1 construct: from tissue; host or cells: fetal bovine serum in tissue culture media
Protocol: Like most 1,4-benzodiazepines, Bz-423 binds strongly to bovine serum albumin (BSA), which reduces the effective concentration of drug free in solution. For example, in tissue culture media containing 10% (v/v) fetal bovine serum (FBS), ca. 99% of the drug is bound to BSA. Therefore, cell culture cytotoxicity assays are conducted in media with 2% FBS to reduce binding to BSA and increase the free [Bz-423]. Under these conditions, the dose response-curve is quite sharp such that there is a limited concentration range at which Bz-423 is only partly effective. Since some benzodiazepines are known to have anti-proliferative properties, the effect of Bz-423 at concentrations <ED50 were carefully analyzed and observed that in addition to inducing apoptosis, Bz-423 prevented cell growth after 3 d in culture. In these low serum conditions, the cytotoxic and anti-proliferative effects overlapped making it difficult to study each effect independently. […] While higher amounts of drug may also block proliferation, it caused apoptosis well before the effects on proliferation could be observed.

fibroblasts = experiment: intracellular ROS (DCF, flow cytometry); type: cell-based, human
From the text: (§1) Foreskin tissue obtained from neonatal circumcisions was used as a source of epidermal keratinocytes and dermal fibroblasts. The use of foreskin tissue in this project was approved by the University of Michigan Institutional Review Board. Epidermal keratinocytes were isolated from foreskin tissue as described previously (see, e.g., Varani J, et al., (1994) J. Clin. Invest. 94:1747-1753; herein incorporated by reference in its entirety). Primary and early passage cells were maintained in Keratinocyte Growth Medium (KGM) (Cambrex Bioscience.). […]
(§2) 2′,7′-dichlorodihydrofluorescin diacetate (DCFH-DA, Molecular Probes, Eugene, Oreg.) was prepared as a 10 mM stock solution in DMSO prior to each use. […] After the indicated treatments, the fluorescence of the oxidized product 2′,7′-dichlorofluorescin (DCF) was monitored by flow cytometry using a FACSCalibur (BD Bioscience, San Diego, Calif.). For each sample, 10,000 events were recorded and the data analyzed to determine median fluorescence intensity.
(§3) Within 1 hour of treatment, Bz-423 increased ROS production in a dose-dependent manner in lymphoid cells. To determine if the anti-proliferative responses to Bz-423 in keratinocytes and fibroblasts similarly involve ROS generation, intracellular ROS levels in Bz-423 treated cells were measured. […]

keratinocytes = experiment: intracellular ROS (DCF, flow cytometry); type: cell-based, human
From the text: as §1, §2, §3

Ramos cells = experiment: early O2− (ROS) response, 1 h; type: cell-based, human; conditions: Homo sapiens, Ramos, 1 h, read-out: ROS EC50 (μM), Ramos cells
Protocol: (§4) To detect O2^−, cells are incubated with DHE (10 μM) for 30 min at 37° C. and are analyzed by flow cytometry to measure ethidium fluorescence. Flow analysis of mitochondrial transmembrane potential (ψm) is conducted by labeling cells with DiOC6(3) (20 nM) for 15 min at 37 degrees C. A positive control for disruption of ψm is established using carbonyl cyanide m-chlorophenylhydrazone (CCCP, 50 μM). Caspase activation assays are performed with FAM-VAD-fluoromethylketone. Processing of the substrate is evaluated by flow cytometry.
(§5) Since an early mitochondrial superoxide (O2^−) mediates apoptosis induced by Bz-423, the O2^− response of cells 1 h following incubation with drug was examined, as well as cell death at 24 h, as previously described (see, e.g., Blatt, N. B., et al., 2002 J Clin Invest 110, 1123-1132; incorporated herein by reference in its entirety).

Jurkat cells [3] = experiment: early O2− (ROS) response, 1 h; type: cell-based; conditions: Homo sapiens, Jurkat, 1 h, read-out: ROS EC50 (μM), Jurkat cells
Protocol: as §4, §5

Jurkat cells [4] = experiment: cell death at 24 h; type: cell-based; conditions: Homo sapiens, Jurkat, 24 h, read-out: Cell death EC50 (μM), Jurkat cells
Protocol: as §5

T1 sequence (P02769 25-607): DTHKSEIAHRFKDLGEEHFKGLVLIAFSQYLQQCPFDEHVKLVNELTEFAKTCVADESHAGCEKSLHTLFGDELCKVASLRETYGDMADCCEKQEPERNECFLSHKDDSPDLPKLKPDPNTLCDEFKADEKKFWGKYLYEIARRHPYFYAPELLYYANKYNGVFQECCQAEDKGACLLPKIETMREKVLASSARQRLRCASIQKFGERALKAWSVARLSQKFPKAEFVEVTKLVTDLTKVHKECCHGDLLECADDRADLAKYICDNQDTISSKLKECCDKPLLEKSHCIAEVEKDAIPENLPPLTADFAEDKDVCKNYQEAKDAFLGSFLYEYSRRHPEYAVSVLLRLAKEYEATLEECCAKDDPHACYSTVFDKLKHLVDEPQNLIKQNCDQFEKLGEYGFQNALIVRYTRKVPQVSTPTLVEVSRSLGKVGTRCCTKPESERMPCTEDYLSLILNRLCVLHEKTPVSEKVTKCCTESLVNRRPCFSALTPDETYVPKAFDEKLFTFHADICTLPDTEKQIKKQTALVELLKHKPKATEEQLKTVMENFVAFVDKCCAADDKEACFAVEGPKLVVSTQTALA

CN1C(=O)C(Cc2ccc3ccccc3c2)N=C(c2ccc(O)cc2)c2cc(Cl)ccc21 (stereo not shown) [Bz-423]
induction of MIF [1]: approximately 10 fold
drug bound to BSA [2]: ca. 99%
lowest dose with an ROS response (fibroblasts): 250 nM
lowest dose with an ROS response (keratinocytes): 250 nM
EC50 (Ramos cells): 7.3 µM
EC50 (Jurkat cells [3]): 10 µM
EC50 (Jurkat cells [4]): 6 µM

Source: patent publication US20090275099A1 (priority 2004, published 2009)
